Data from PMC9967118, “Influence of Mutations of Conserved Arginines on Neuropeptide Binding in the DPP III Active Site” (Molecules, 2023).
Where no end group is shown, it is not given here.

Key:
Human DPP3 variant R669M = target: T1, Human DPP3 variant R669M (Homo sapiens, UniProt Q9NY33, R669M); assay: Inhibition of DPP III catalyzed hydrolysis of Arg2-2NA, R669M variant; assay type: biochemical; conditions: R669M hDPP III 1 nM; substrate Arg2-2NA 0.25–100 μM; 20 mM Tris-Cl pH 7.4, 25 °C, 2 min pre-incubation; fluorescence of 2NA; competitive inhibition; best fit ± standard error; tynorphin 1–5 μM, valorphin 0.75–11.2 μM
T1 construct: made in house; host or cells: E. coli
T1 sequence (Q9NY33 1-737 R669M): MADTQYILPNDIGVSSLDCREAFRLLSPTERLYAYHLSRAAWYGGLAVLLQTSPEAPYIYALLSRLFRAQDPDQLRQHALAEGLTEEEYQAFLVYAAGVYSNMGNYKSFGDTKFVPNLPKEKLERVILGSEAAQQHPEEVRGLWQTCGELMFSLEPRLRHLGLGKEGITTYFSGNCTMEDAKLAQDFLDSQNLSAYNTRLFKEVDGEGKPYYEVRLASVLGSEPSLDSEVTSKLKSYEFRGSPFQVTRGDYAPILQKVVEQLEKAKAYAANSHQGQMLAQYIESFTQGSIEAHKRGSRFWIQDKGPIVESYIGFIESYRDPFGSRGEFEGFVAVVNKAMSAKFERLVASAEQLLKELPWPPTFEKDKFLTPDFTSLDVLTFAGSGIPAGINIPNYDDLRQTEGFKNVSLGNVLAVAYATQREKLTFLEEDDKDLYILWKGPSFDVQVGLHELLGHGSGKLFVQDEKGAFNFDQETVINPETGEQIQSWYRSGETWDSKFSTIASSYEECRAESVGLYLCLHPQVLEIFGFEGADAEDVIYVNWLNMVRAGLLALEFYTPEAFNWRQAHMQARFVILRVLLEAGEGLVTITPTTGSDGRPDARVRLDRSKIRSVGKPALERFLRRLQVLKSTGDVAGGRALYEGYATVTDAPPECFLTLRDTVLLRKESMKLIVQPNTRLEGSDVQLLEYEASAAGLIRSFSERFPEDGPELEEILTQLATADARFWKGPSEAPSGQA
Method: (§1) Human DPP3 wild-type (WT) and variants R669A and R669M were expressed in E. coli and purified using IMAC, as described in detail recently. Briefly, variants were prepared using a QuikChange II site-directed mutagenesis kit (Agilent Technologies, Santa Clara, CA, USA) while following the manufacturer’s instructions, with the hDPP3 gene on a pET21a plasmid as template. Complementary primer pairs were ordered from Macrogen Europe (The Netherlands) with the following sequences:
(§2) Proteins were expressed in E. coli for approximately 20 h at 18 °C, shaken at 120 rpm, and paired with 0.25 mM IPTG as an expression inductor. Cell pellets were lysed with lysosyme and with sonication; the lysate was then purified with DNAse I and through centrifugation, and affinity chromatography was performed on a Rotigarose His/Ni column. Lysis, wash, and elution buffers contained imidazole at concentrations of 10 mM, 20 mM, and 300 mM, respectively, and all buffers contained 50 mM Tris pH = 8.0, 300 mM NaCl. Fractions were pooled based on protein concentration (determined by using a BioDrop microvolume spectrophotometer) and purity (assessed by SDS-PAGE), and they were desalted on a PD-10 column with 20 mM Tris-Cl buffer, pH = 7.5. Aliquots were frozen and stored at −80 °C.
(§3) Enzyme kinetics were measured using an Agilent Cary Eclipse fluorescence spectrophotometer (Agilent Technologies, Santa Clara, CA, USA) with Arg2-2NA as a substrate analog and fluorescent 2NA as the product of the peptidase reaction. The assay has been described in detail previously. Arg2-2NA and peptide in 20 mM Tris-Cl buffer pH = 7.4 were pre-incubated at 25 °C for 2 min before the reaction was started by adding the enzyme into the cuvette. Substrate concentrations ranged from 0.25 to 100 μM. The peptide (inhibitor) concentrations were chosen so the output could be easily measured. […] Three peptide concentrations were used for each peptide. The enzyme concentration was 1 nM in all measurements.

[1] = target: T2, Human DPP3 wild-type (WT) (Homo sapiens, UniProt Q9NY33); assay: Inhibition of DPP III catalyzed hydrolysis of Arg2-2NA, wild-type enzyme; assay type: biochemical; conditions: WT hDPP III 1 nM; substrate Arg2-2NA 0.25–100 μM; 20 mM Tris-Cl pH 7.4, 25 °C, 2 min pre-incubation; fluorescence of 2NA; competitive inhibition; best fit ± standard error; inhibitor tynorphin 1–50 nM, valorphin 15–150 nM
T2 construct: made in house; host or cells: E. coli
T2 sequence (Q9NY33 1-737): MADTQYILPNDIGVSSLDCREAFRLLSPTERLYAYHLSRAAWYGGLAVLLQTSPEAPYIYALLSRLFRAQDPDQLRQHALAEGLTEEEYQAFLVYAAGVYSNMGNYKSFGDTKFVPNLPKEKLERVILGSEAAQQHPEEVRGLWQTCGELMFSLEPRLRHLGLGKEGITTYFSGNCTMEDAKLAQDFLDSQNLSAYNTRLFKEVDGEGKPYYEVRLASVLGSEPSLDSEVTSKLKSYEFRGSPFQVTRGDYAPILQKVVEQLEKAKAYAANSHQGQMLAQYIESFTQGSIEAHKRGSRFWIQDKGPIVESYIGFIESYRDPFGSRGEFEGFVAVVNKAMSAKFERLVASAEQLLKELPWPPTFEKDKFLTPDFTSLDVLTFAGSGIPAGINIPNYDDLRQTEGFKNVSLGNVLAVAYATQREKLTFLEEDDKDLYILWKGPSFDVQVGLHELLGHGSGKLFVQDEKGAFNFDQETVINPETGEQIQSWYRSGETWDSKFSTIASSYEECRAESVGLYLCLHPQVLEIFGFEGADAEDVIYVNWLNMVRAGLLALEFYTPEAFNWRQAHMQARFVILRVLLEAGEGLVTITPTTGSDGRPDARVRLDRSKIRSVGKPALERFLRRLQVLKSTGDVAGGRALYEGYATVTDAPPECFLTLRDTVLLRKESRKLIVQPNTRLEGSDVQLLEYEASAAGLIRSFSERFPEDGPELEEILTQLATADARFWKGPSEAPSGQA
Method: as §1, §2, §3

Human DPP3 variant R669A = target: T3, Human DPP3 variant R669A (Homo sapiens, UniProt Q9NY33, R669A); assay: Inhibition of DPP III catalyzed hydrolysis of Arg2-2NA, R669A variant; assay type: biochemical
T3 construct: made in house; host or cells: E. coli
T3 sequence (Q9NY33 1-737 R669A): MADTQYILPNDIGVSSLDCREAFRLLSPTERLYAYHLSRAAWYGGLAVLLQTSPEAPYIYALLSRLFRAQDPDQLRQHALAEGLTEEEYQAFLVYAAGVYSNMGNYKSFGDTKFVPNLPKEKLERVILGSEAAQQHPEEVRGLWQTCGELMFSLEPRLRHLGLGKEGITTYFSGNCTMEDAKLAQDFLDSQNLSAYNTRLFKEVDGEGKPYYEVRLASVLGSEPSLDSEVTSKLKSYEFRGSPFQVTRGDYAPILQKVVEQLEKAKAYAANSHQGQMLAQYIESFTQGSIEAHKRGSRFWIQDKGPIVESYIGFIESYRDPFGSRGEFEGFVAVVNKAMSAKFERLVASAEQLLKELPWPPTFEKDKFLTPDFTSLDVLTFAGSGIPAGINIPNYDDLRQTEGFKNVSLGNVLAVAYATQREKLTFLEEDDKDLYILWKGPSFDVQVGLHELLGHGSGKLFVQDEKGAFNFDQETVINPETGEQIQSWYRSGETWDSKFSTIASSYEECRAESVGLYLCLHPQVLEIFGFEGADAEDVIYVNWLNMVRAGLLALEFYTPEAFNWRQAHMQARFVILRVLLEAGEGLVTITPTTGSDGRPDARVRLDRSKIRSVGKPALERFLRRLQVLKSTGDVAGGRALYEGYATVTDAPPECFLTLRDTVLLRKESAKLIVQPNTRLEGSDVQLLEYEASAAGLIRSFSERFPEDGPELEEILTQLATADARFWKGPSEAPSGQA
Method: as §1, §2, §3

DPP III = conditions: human renal epithelial cells; cited from earlier work
Source text: (§4) Dipeptidyl peptidase III (DPP III, EC 3.4.14.4) is a monozinc metallopeptidase that hydrolyzes dipeptides from the N-terminus of its substrates consisting of three or more amino acids. DPP III is the only member of the M49 metallopeptidase family and the only metalloenzyme among dipeptidyl peptidases. This two-domain exopeptidase is broadly distributed in human tissues, where it participates in the final stages of protein turnover.

human DPP III (hDPP III) = tested on: human DPP III (hDPP III); design: method as in 2 sources, one per row (each row's own in cited_ref): ref 17 = [17]; PMID 35163780; doi:10.3390/ijms23031858; 17. Tomić A. Tomić S. Demystifying DPP III Catalyzed Peptide Hydrolysis—Computational Study of the Complete Catalytic Cycle of Human DPP III Catalyzed Tynorphin Hydrolysis Int. J. Mol. Sci. 2022 23 18 ||| ref 18 = [18]; PMID 36116590; doi:10.1016/j.ijbiomac.2022.09.119; 18. Karačić Z. Šupljika F. Tomić A. Brkljačić L. Paić A.T. Ćehić M. Tomić S. Neuropeptides, Substrates and Inhibitors of Human Dipeptidyl Peptidase III, Experimental and Computational Study—A New Subs; conditions: computational and experimental study of neuropeptides; cited from earlier work
Source text: Despite the efforts of numerous scientists, knowledge about the role that DPP III might play in various physiological processes is still unclear. […] In this and in QM/MM studies ...

[2] = tested on: angiotensin II-infused hypertensive mice; conditions: cited from earlier work
Source text: as §4

Molecule: VVYPWTQ [valorphin]
- Ki (Human DPP3 variant R669M): 406 ± 33 nM
- Ki [1]: 36.5 ± 2.9 nM
- Ki (Human DPP3 variant R669A): 1210 ± 224 nM

Molecule: angiotensin (1–7): peptide degraded by DPP III in human renal epithelial cells (DRVYIHP; Angiotensin 1-7; UniProt P01019 25-31, looked up)
- degradation by DPP III (DPP III): DPP III degrades angiotensin (1–7)

Molecule: β-casomorphin
- in vitro substrate identification / substrate class with hDPP III (human DPP III (hDPP III)): in vitro substrates of hDPP III

B1: DPP III: zinc exopeptidase (EC 3.4.14.4), M49 family (protein, UniProt Q9NY33 2-737, looked up)
Dipeptidyl peptidase 3: ADTQYILPNDIGVSSLDCREAFRLLSPTERLYAYHLSRAAWYGGLAVLLQTSPEAPYIYALLSRLFRAQDPDQLRQHALAEGLTEEEYQAFLVYAAGVYSNMGNYKSFGDTKFVPNLPKEKLERVILGSEAAQQHPEEVRGLWQTCGELMFSLEPRLRHLGLGKEGITTYFSGNCTMEDAKLAQDFLDSQNLSAYNTRLFKEVDGEGKPYYEVRLASVLGSEPSLDSEVTSKLKSYEFRGSPFQVTRGDYAPILQKVVEQLEKAKAYAANSHQGQMLAQYIESFTQGSIEAHKRGSRFWIQDKGPIVESYIGFIESYRDPFGSRGEFEGFVAVVNKAMSAKFERLVASAEQLLKELPWPPTFEKDKFLTPDFTSLDVLTFAGSGIPAGINIPNYDDLRQTEGFKNVSLGNVLAVAYATQREKLTFLEEDDKDLYILWKGPSFDVQVGLHELLGHGSGKLFVQDEKGAFNFDQETVINPETGEQIQSWYRSGETWDSKFSTIASSYEECRAESVGLYLCLHPQVLEIFGFEGADAEDVIYVNWLNMVRAGLLALEFYTPEAFNWRQAHMQARFVILRVLLEAGEGLVTITPTTGSDGRPDARVRLDRSKIRSVGKPALERFLRRLQVLKSTGDVAGGRALYEGYATVTDAPPECFLTLRDTVLLRKESRKLIVQPNTRLEGSDVQLLEYEASAAGLIRSFSERFPEDGPELEEILTQLATADARFWKGPSEAPSGQA
- blood pressure [2]: lowering blood pressure
